This is an account of results in ChEMBL document CHEMBL1201862, “PubChem BioAssay data set” (2004).

Test systems include UACC-62; NCI-H23; SF-295; NCI/ADR-RES; HT-29; MDA-MB-435; NCI-H522; SK-MEL-2; NCI-H460; HOP-92; HCT-116; UO-31; SN12C; SR; HCT-15; Hs-578T; SNB-75; DU-145; SF-539; RPMI-8226.
Assay in all cases: NCI tumour cell line growth inhibition, 48 h

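All cell lines were grown in 96-well plates and treated with compound for 48 hours. The concentration for 50% growth inhibition is given as GI50.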 Activity calls are given as the source filed them. Cut-off read from the data, not from the text of the source: active = GI50 up to about 1.1 µM and inactive = higher.

Consider `O=C1c2nc3n(c2C(=O)c2c1nc1n2CCC1)CCC3`, for which the GI50 in the test with UACC-62 was 1.85 µM (inactive); with NCI-H23, 2.49 µM (inactive); in the test on SF-295, 5.37 µM (inactive); in the test on NCI/ADR-RES, > 10 µM (inactive); in the test on HT-29 it was 3.14 µM (inactive); in the test with MDA-MB-435 it was 2.02 µM (inactive). Also, the GI50 in the test on NCI-H522 was 6.44 µM (inactive); with SK-MEL-2, 3.66 µM (inactive); in the test with NCI-H460 it was 1.82 µM (inactive); in the test on HOP-92, 13.1 µM (inactive); in the test on HCT-116, 3.03 µM (inactive); in the test with UO-31 it was 18.8 µM (inactive). Further, the GI50 in the test with SN12C is 3.64 µM (inactive); in the test with SR, 3.01 µM (inactive); in the test with HCT-15, 5.79 µM; in the test with Hs-578T, > 10 µM (inactive); with SNB-75 it was 15.2 µM (inactive); in the test with DU-145 it was > 10 µM (inactive). Further, the GI50 in the test on SF-539 is 3.64 µM (inactive); with RPMI-8226 it was 15.1 µM (inactive).
For `N#Cc1c(N2CCN(c3ccc([N+](=O)[O-])cc3)CC2)[n+]([O-])c2ccc(Cl)cc2[n+]1[O-]`, the GI50 with UACC-62 is 1.18 µM (inactive); in the test with NCI-H23 it was 1.71 µM (inactive); in the test on SF-295, 1.91 µM (inactive); in the test with NCI/ADR-RES, 1.07 µM (active); with HT-29 it was 1.31 µM (inactive); with MDA-MB-435 it was 1.8 µM (inactive). The GI50 is 0.721 µM (active) in the test on NCI-H522; 2.2 µM (inactive) in the test with SK-MEL-2; 0.0644 µM (active) in the test on NCI-H460; 0.161 µM (active) in the test with HOP-92; 0.427 µM (active) in the test with HCT-116; 1.43 µM (inactive) in the test with UO-31. Moreover, the GI50 in the test on SN12C was 0.966 µM (active); in the test with SR, 0.016 µM (active); with HCT-15 it was 0.627 µM; with Hs-578T, 2.11 µM (inactive); in the test with SNB-75, 2.36 µM (inactive); in the test on DU-145, 2.16 µM (inactive). In addition, the GI50 was 1.15 µM (inactive) in the test on SF-539 and 0.705 µM (active) with RPMI-8226.
Turning to `COc1ccc(C2=C(Cl)C(=O)O/C2=C\c2ccc(OC)c(Br)c2)cc1Cl`, the GI50 in the test on UACC-62 is 22.8 µM (inactive); in the test on NCI-H23, 16.3 µM (inactive); in the test with SF-295, 15.7 µM (inactive); in the test on NCI/ADR-RES, 37.8 µM (inactive); with HT-29 it was > 100 µM (inactive); in the test on MDA-MB-435 it was > 100 µM (inactive). The GI50 in the test on NCI-H522 is 25.6 µM (inactive); in the test with SK-MEL-2 it was 25.2 µM (inactive); with NCI-H460, 27.7 µM (inactive); in the test with HOP-92, 24 µM (inactive); in the test on HCT-116 it was 23.5 µM (inactive); in the test on UO-31, 53.1 µM (inactive). Also, the GI50 with SR was 51.8 µM (inactive); with HCT-15 it was 55.2 µM; in the test with Hs-578T, 27.4 µM (inactive); in the test on SNB-75, > 100 µM (inactive); in the test with DU-145, 74.6 µM (inactive); in the test with SF-539, 16.1 µM (inactive). Moreover, the GI50 with RPMI-8226 was > 100 µM (inactive).
As to `COCCNC1CCC(=O)c2[nH]c3ccccc3c21` (stereo not given), the GI50 in the test with NCI-H23, with SF-295, in the test with NCI/ADR-RES, in the test on HT-29, in the test on MDA-MB-435 and in the test on NCI-H522 was > 100 µM (inactive) throughout. In addition, the GI50 was > 100 µM (inactive) in the test on SK-MEL-2; > 100 µM (inactive) in the test with NCI-H460; > 100 µM (inactive) in the test on HOP-92; > 100 µM (inactive) with HCT-116; 65.8 µM (inactive) with UO-31; > 100 µM (inactive) in the test on SN12C. For the same compound, the GI50 was > 100 µM (inactive) in the test with SR; more than 100 µM with HCT-15; 83.9 µM (inactive) with Hs-578T; > 100 µM (inactive) in the test on SNB-75; > 100 µM (inactive) in the test on DU-145; > 100 µM (inactive) in the test with SF-539. For the same compound, the GI50 in the test on RPMI-8226 was > 100 µM (inactive).
As to `CC(C)(C)OC(=O)[N+](=N)C(=O)C1CCC(=O)N1C(=O)OCc1ccccc1` (stereo not given), the GI50 with UACC-62 is > 100 µM (inactive); with NCI-H23 it was > 100 µM (inactive); in the test with SF-295 it was > 100 µM (inactive); in the test on NCI/ADR-RES, > 100 µM (inactive); in the test with HT-29 it was > 100 µM (inactive); with MDA-MB-435, 86.7 µM (inactive). Besides, the GI50 with NCI-H522, with NCI-H460, in the test on HOP-92, in the test on HCT-116, with UO-31 and with SN12C was > 100 µM (inactive) throughout. In addition, the GI50 in the test with SR, in the test on Hs-578T, in the test on SNB-75, in the test with DU-145 and in the test on RPMI-8226 was > 100 µM (inactive) throughout.
In the case of `COC(=O)c1ccc(NC(=O)O/N=C(\Cl)C(C)C)cc1`, the GI50 with UACC-62 is 13.1 µM (inactive); in the test on NCI-H23 it was 17.1 µM (inactive); with SF-295 it was 17.7 µM (inactive); with NCI/ADR-RES it was 5.71 µM (inactive); with HT-29, 4.31 µM (inactive); in the test on MDA-MB-435 it was 11.3 µM (inactive). The GI50 in the test on NCI-H522 was 0.32 µM (active); with SK-MEL-2, 16.8 µM (inactive); in the test on NCI-H460 it was 20.9 µM (inactive); in the test on HOP-92 it was 1.81 µM (inactive); in the test on HCT-116 it was 5.61 µM (inactive); with UO-31 it was 15.4 µM (inactive). Further, the GI50 is 6.19 µM (inactive) with SN12C; 1.18 µM (inactive) with SR; 1.83 µM in the test with HCT-15; 10.8 µM (inactive) with Hs-578T; 7.78 µM (inactive) in the test on SNB-75; 18.5 µM (inactive) in the test with DU-145. Further, the GI50 in the test with RPMI-8226 was 1.83 µM (inactive).
As to `Cc1cccc(Nc2nc(NNC(=O)Cc3ccccc3)nc(NNC(=O)c3ccncc3)n2)c1`, the GI50 in the test with UACC-62, with NCI-H23, in the test with SF-295, in the test on NCI/ADR-RES, with HT-29 and in the test on MDA-MB-435 was > 10 µM (inactive) each time. The GI50 in the test on NCI-H522, in the test on NCI-H460, in the test on HOP-92, with HCT-116, with UO-31 and in the test with SN12C was > 10 µM (inactive) each time. The GI50 was > 10 µM (inactive) in the test on SR; more than 10 µM in the test with HCT-15; > 10 µM (inactive) with Hs-578T; > 10 µM (inactive) in the test with SNB-75; > 10 µM (inactive) in the test with DU-145; > 10 µM (inactive) in the test with SF-539. In the test with RPMI-8226, the GI50 is > 10 µM (inactive).
As to `COc1ccc([C@@]23Oc4cc(OC)cc(OC)c4[C@]2(O)[C@H](O)[C@H](C(=O)N(C)C)[C@H]3c2ccccc2)cc1` [ROCAGLAMIDE], the GI50 with UACC-62 is 0.00676 µM (active); in the test with NCI-H23, 0.00885 µM (active); with SF-295, 0.0045 µM (active); in the test with NCI/ADR-RES, 0.0306 µM (active); in the test with HT-29 it was 0.00224 µM (active); in the test with MDA-MB-435 it was 0.0036 µM (active). The GI50 with NCI-H522 is 0.0104 µM (active); in the test on SK-MEL-2, 0.0197 µM (active); with NCI-H460, 0.0027 µM (active); in the test on HOP-92, 0.0138 µM (active); in the test on HCT-116, 0.00316 µM (active); in the test on UO-31, 0.0158 µM (active). In addition, the GI50 is 0.00815 µM (active) in the test on SN12C; 0.00162 µM (active) with SR; 0.0176 µM in the test with HCT-15; 0.00875 µM (active) in the test with Hs-578T; 0.00935 µM (active) in the test on SNB-75; 0.00809 µM (active) in the test with DU-145. Further, the GI50 in the test with RPMI-8226 was 0.00555 µM (active).
Consider `Nc1nc(NCC2(CO)CC2)cc(=O)[nH]1`, for which the GI50 in the test with UACC-62, with NCI-H23, in the test with SF-295, in the test with NCI/ADR-RES, in the test on HT-29 and with MDA-MB-435 was > 100 µM (inactive) in each case. Moreover, the GI50 with NCI-H522, with SK-MEL-2, in the test on NCI-H460, in the test with HOP-92, in the test with HCT-116 and with UO-31 was > 100 µM (inactive) each time. For the same compound, the GI50 in the test with SN12C was > 100 µM (inactive); with SR, > 100 µM (inactive); in the test on HCT-15, more than 100 µM; in the test on Hs-578T it was > 100 µM (inactive); in the test on SNB-75 it was > 100 µM (inactive); in the test with DU-145, > 100 µM (inactive). The GI50 with RPMI-8226 was > 100 µM (inactive).
With `O=C(N[C@H]1CCC[C@H]1C(=O)Nc1ccc(C(F)(F)F)cc1)OCc1ccccc1`, the GI50 in the test on UACC-62, with NCI-H23, in the test on SF-295, with NCI/ADR-RES, in the test on HT-29 and with MDA-MB-435 was > 100 µM (inactive) throughout. Moreover, the GI50 in the test on NCI-H522 is 54.2 µM (inactive); with SK-MEL-2, > 100 µM (inactive); with NCI-H460, > 100 µM (inactive); with HOP-92, > 100 µM (inactive); in the test on HCT-116, > 100 µM (inactive); in the test with UO-31 it was > 100 µM (inactive). For the same compound, the GI50 in the test on SN12C is > 100 µM (inactive); with SR it was > 100 µM (inactive); in the test with HCT-15 it was more than 100 µM; in the test with Hs-578T, 88.5 µM (inactive); in the test with DU-145 it was > 100 µM (inactive); with SF-539, > 100 µM (inactive). In addition, the GI50 in the test with RPMI-8226 is > 100 µM (inactive).
